Test results: ChEMBL document CHEMBL6096715, “Novel TYK2 Inhibitors for Treating Autoimmune and Inflammatory Diseases” (ACS Med Chem Lett, 2025)

Target: Non-receptor tyrosine-protein kinase TYK2 (Homo sapiens, UniProt P29597)
Sequence (P29597 whole entry): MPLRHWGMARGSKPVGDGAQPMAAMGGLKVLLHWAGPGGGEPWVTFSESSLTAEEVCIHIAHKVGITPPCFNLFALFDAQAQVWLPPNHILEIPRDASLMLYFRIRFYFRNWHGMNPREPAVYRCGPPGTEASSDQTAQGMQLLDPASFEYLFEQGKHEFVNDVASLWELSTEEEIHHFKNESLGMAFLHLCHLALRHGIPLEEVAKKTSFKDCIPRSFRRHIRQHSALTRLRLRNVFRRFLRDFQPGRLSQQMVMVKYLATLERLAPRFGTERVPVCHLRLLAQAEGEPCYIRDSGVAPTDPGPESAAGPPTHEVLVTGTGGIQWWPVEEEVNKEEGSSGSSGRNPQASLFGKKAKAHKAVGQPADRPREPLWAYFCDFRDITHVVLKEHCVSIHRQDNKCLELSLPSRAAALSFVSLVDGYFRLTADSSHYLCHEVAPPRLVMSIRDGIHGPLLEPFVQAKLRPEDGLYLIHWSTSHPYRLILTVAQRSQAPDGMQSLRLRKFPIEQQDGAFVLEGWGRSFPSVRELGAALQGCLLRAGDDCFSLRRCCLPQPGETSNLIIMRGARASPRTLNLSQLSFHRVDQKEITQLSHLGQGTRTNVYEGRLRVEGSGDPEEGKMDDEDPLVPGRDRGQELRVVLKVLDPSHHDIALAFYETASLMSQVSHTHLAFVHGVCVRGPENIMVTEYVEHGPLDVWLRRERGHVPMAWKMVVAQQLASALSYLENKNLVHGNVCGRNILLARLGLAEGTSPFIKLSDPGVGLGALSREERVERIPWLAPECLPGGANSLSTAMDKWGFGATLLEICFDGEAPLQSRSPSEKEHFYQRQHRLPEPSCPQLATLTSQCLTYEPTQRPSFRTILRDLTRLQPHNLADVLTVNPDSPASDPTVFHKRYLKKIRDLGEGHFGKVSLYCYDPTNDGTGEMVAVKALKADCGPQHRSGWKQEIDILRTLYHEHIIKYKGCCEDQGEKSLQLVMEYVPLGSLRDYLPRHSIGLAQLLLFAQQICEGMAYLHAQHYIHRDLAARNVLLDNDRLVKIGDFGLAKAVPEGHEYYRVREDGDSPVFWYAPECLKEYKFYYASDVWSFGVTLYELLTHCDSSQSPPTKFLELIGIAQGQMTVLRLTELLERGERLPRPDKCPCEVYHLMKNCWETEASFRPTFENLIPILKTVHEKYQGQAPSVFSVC

Cn1cc(-c2cc3c(N4C[C@H]5CC[C@@H](C4)N5[C@H]4C[C@@H](C#N)C4(C)C)ccnn3c2)cn1
IC50: 2.33 nM
